Source: patent US11426356B2, “Crosslinked particles” (Pendant Biosciences, Inc., priority 2015, dated 2022)
Blank lines part the entries; values can stand above or below the compound they belong to.

Tests used:
Assay type in all cases: physicochemical
[1] = Curcumin loading, release and post-release extraction of microparticle flakes
Description: (§1) Unless otherwise indicated, quantitation of drug products was carried out using HPLC methods. Calibration curves for drugs used herein (e.g., triamcinolone, triamcinolone hexacetonide, triamcinolone acetonide, paclitaxel, and curcumin) were prepared by injecting known concentrations of the drugs and measuring the area under the curve at each concentration. Analyses were carried out using an Agilent Zorbax Eclipse XDB-C18 column (150×4.6 mm i.d.) with a 12.5×4.6 mm guard column. The parameters for each drug are given below in Table 1
Crosslinked microparticles (15 mg) were loaded with 2.5 mg curcumin by overnight soaking in THF followed by the slow addition of 50 mL PBS containing 0.1% Tween. The microparticles were rinsed with THF to remove free curcumin and dried overnight.
It was observed that microparticles thus produced formed “flakes” that could not be re-suspended in THF or PBS buffer solution upon drying. […] The flakes could not be re-suspended in PBS buffer.
The release profile of curcumin of microparticle flakes produced by the method described above. The release profile is further quantified in Table 6, below.

[2] = Drug loading of crosslinked PVL-co-PAVL macroparticles (cylinders)
Description: as §1
A crosslinked macroparticle weighing about 15 mg comprising PVL-co-PAVL (MW=14760 g/mol, 13% AVL, 87% VL) was loaded with 2.5 mg paclitaxel by overnight soaking in THF followed by the slow addition of 50 mL PBS containing 0.1% Tween.

[3] = Preliminary drug release from crosslinked macroparticles
Description: as §1
The macroparticles were suspended in PBS (0.1% Tween) and the release rate was observed. The macroparticles released 5% of the paclitaxel after 3 hours at room temperature and about 5% after 24 hours at room temperature.

[4] = Release of triamcinolone hexacetonide from loaded particles in dissolution media
Description: as §1
25 mg of 75:25 (mPEG-PVL-PAVL:PVL-PAVL) particles were swollen overnight with 2 mg/mL triamcinolone hexacetonide in THF. 10 mL water including 0.1% tween was then added dropwise. The resulting mixture was centrifuged, the supernatant was collected, and the addition of 10 mL water including 0.1% tween was added dropwise again (2×; 30 mL total).
Without wishing to be bound by theory, this may be due to the fact that the triamcinolone hexacetonide crystallized on the surface of the particles. Without wishing to be bound by theory, this may be due to the relatively fast addition of water and the limited solubility of triamcinolone hexacetonide, which caused it to crystallize.
The loading efficiency, which included surface-bound drug or free drug in solution, was 67%. Upon suspending the particles in dissolution media, 20% of the triamcinolone hexacetonide was released within an hour, and 30% was released within 2 hours.

[5] = Loading of particles with triamcinolone hexacetonide (swelling in THF, slow addition of water); details: included surface-bound drug or free drug in solution
Description: In some embodiments, the loading procedure can affect the amount of drug that is absorbed into a particle of the present disclosure. For example, as set forth in Examples 7 and 8, 25 mg of 75:25 (mPEG-PVL-PAVL:PVL-PAVL) particles were swollen overnight with 2 mg/mL triamcinolone hexacetonide in THF. However, without wishing to be bound by theory, slow addition of greater volumes of water can facilitate greater uptake of triamcinolone hexacetonide by allowing the drug to preferentially partition into the particles. As set forth in Examples 7 and 8, slow addition of water enabled 67% loading efficiency. Additional parameters, in addition to the rate of water addition, that can affect the loading of a drug into a particle of the present disclosure are, for instance, the solvent in which the drug is dissolved, the time that the particles soak with the drug, and the volume of water used. Other parameters include the pH and the ionic strength of the solvent. For example, protic organic solvents such as methanol or ethanol can be used in place of water to facilitate loading of drug into a particle of the present disclosure.
Unless otherwise indicated, quantitation of drug products was carried out using HPLC methods. […]

[6] = particles of Example 8 suspended in dissolution media
[7] = triamcinolone hexacetonide, first cylinder (labelled with a circle)
[8] = about 15 mg PVL-co-PAVL macroparticle loaded with 2.5 mg paclitaxel
[9] = about 15 mg PVL-co-PAVL macroparticle, PBS (0.1% Tween), room temperature

curcumin recovered in post-release extraction of the flakes ([1]; after 48 hours release): 57%
curcumin released after 48 hours ([1]; from microparticle flakes): 51%
capacity ([2]; curcumin-loaded cylinder): 9.64%
amount of drug in the cylinder ([2]; curcumin-loaded cylinder dissolved in THF): 1.176 mg
curcumin released after about eight days ([3]; curcumin-loaded cylinder, FIG. 21): almost all
SMILES: COc1cc(/C=C/C(=O)CC(=O)/C=C/c2ccc(O)c(OC)c2)ccc1O [curcumin]

release profile ([4]; Example 7: 75:25 (mPEG-PVL-PAVL:PVL-PAVL) particles, relatively fast addition of water, surface-crystallized drug): relatively rapid release
triamcinolone hexacetonide released within 2 hours [4, 6]: 30%
triamcinolone hexacetonide released within an hour [4, 6]: 20%
loading efficiency [5]: 67%
amount of drug in the first cylinder [2, 7]: 1.118 mg
capacity of the first cylinder [2, 7]: 9.12%
capacity of the second cylinder ([2]; triamcinolone hexacetonide, second cylinder (labelled with an X)): 11.651%
amount of drug in the second cylinder ([2]; triamcinolone hexacetonide, second cylinder (labelled with an X), in mg): 0.901
total drug released after about 6 days ([3]; both triamcinolone hexacetonide cylinders, FIG. 23): about 60%
SMILES: CC(C)(C)CC(=O)OCC(=O)[C@@]12OC(C)(C)O[C@@H]1C[C@H]1[C@@H]3CCC4=CC(=O)C=C[C@]4(C)[C@@]3(F)[C@@H](O)C[C@@]12C [triamcinolone hexacetonide]

loading capacity [2, 8]: 1.7 % w/w
loading efficiency [2, 8]: 30%
paclitaxel released after 3 hours [3, 9]: 5%
paclitaxel released after 24 hours [3, 9]: about 5%
SMILES: CC(=O)O[C@H]1C(=O)[C@@]2(C)[C@H]([C@H](OC(=O)c3ccccc3)[C@]3(O)C[C@H](OC(=O)[C@H](O)[C@@H](NC(=O)c4ccccc4)c4ccccc4)C(C)=C1C3(C)C)[C@]1(OC(C)=O)CO[C@@H]1C[C@@H]2O [paclitaxel]
